The test concerns Nrf2 transcriptional activity (pARE-Luc reporter) in HepG2 cells. Put plainly: In vitro Nrf2 transcriptional activity measurement by ARE-dependent reporter assay in HepG2 cell. In kind it is cell-based, human. As to conditions: Homo sapiens; HepG2 cells transfected with pARE-Luc, 4 hours at 37° C.; luciferase activity of Example 1-54 or Example 17-23 at 3.75 μM defined as 100%. The procedure, abridged: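 HepG2 cells transfected with pGL4.37 (pARE-Luc), replated onto compound and incubated 4 h at 37° C; luciferase read by Bright-Glo luminescence. Response normalized to 100% set by a reference compound at 3.75 μM; EC50 from dose-response curve.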

pEC50: −log10 of the molar value.

On to `COc1cc(C(=O)N2COc3c(cccc3-c3cc(N4CCOCC4)c(C(=O)O)cc3F)C2)c(Cl)cc1-c1ccncc1` [Compound 2-5, 4-[3-(2-Chloro-5-methoxy-4-pyridin-4-ylbenzoyl)-2,4-dihydro-1,3-benzoxazin-8-yl]-5-fluoro-2-morpholin-4-ylbenzoic acid], for which the pEC50 was 8.62.
In turn, `COc1cc(C(=O)N2COc3c(cccc3-c3cc(N4CCOCC4)c(C(=O)O)cc3F)C2)c(Cl)cc1-c1cnn(C)c1` [Compound 2-6, 4-[3-[2-Chloro-5-methoxy-4-(1-methylpyrazol-4-yl)benzoyl]-2,4-dihydro-1,3-benzoxazin-8-yl]-5-fluoro-2-morpholin-4-ylbenzoic acid] had a pEC50 of 8.22.
`CC(C)(CO)n1cc(-c2cc(Cl)c(C(=O)N3COc4c(cccc4-c4cc(N5CCOCC5)c(C(=O)O)cc4F)C3)c(Cl)c2)cn1` [Compound 3-1, 4-[3-[2,6-Dichloro-4-[1-(1-hydroxy-2-methylpropan-2-yl)pyrazol-4-yl]benzoyl]-2,4-dihydro-1,3-benzoxazin-8-yl]-5-fluoro-2-morpholin-4-ylbenzoic acid] gave a pEC50 of 8.89.
Under `CN1CCn2ncc(-c3cc(Cl)c(C(=O)N4COc5c(cccc5-c5cc(N6C7CCC6COC7)c(C(=O)O)cc5F)C4)c(Cl)c3)c2C1` [Compound 3-2, 4-[3-[2,6-Dichloro-4-(5-methyl-6,7-dihydro-4H-pyrazolo[1,5-a]pyrazin-3-yl)benzoyl]-2,4-dihydro-1,3-benzoxazin-8-yl]-5-fluoro-2-(3-oxa-8-azabicyclo[3.2.1]octan-8-yl)benzoic acid] stands 8.17.
`COc1ccc(-c2cc(Cl)c(C(=O)N3COc4c(cccc4-c4cc(N5C6CCC5COC6)c(C(=O)O)cc4F)C3)c(Cl)c2)nn1` [Compound 3-3, 4-[3-[2,6-Dichloro-4-(6-methoxypyridazin-3-yl)benzoyl]-2,4-dihydro-1,3-benzoxazin-8-yl]-5-fluoro-2-(3-oxa-8-azabicyclo[3.2.1]octan-8-yl)benzoic acid] had a pEC50 of 8.03.
As to `Cn1nnc2c(-c3cc(Cl)c(C(=O)N4COc5c(cccc5-c5cc(N6C7CCC6COC7)c(C(=O)O)cc5F)C4)c(Cl)c3)cccc21` [Compound 3-4, 4-[3-[2,6-Dichloro-4-(1-methylbenzotriazol-4-yl)benzoyl]-2,4-dihydro-1,3-benzoxazin-8-yl]-5-fluoro-2-(3-oxa-8-azabicyclo[3.2.1]octan-8-yl)benzoic acid], the pEC50 was 8.21.
`Cn1ncc2c(-c3cc(Cl)c(C(=O)N4COc5c(cccc5-c5cc(N6C7CCC6COC7)c(C(=O)O)cc5F)C4)c(Cl)c3)cncc21` [Compound 3-5, 4-[3-[2,6-Dichloro-4-(1-methylpyrazolo[3,4-c]pyridin-4-yl)benzoyl]-2,4-dihydro-1,3-benzoxazin-8-yl]-5-fluoro-2-(3-oxa-8-azabicyclo[3.2.1]octan-8-yl)benzoic acid]: the pEC50 was 8.16.
The compound `Cn1cc2cncc(-c3cc(Cl)c(C(=O)N4COc5c(cccc5-c5cc(N6C7CCC6COC7)c(C(=O)O)cc5F)C4)c(Cl)c3)c2n1` [Compound 3-6, 4-[3-[2,6-Dichloro-4-(2-methylpyrazolo[4,3-c]pyridin-7-yl)benzoyl]-2,4-dihydro-1,3-benzoxazin-8-yl]-5-fluoro-2-(3-oxa-8-azabicyclo[3.2.1]octan-8-yl)benzoic acid] showed a pEC50 of 8.05.
Under `Cn1ncc2c(-c3cc(Cl)c(C(=O)N4COc5c(cccc5-c5cc(N6C7CCC6COC7)c(C(=O)O)cc5F)C4)c(Cl)c3)cccc21` [Compound 3-7, 4-[3-[2,6-Dichloro-4-(1-methylindazol-4-yl)benzoyl]-2,4-dihydro-1,3-benzoxazin-8-yl]-5-fluoro-2-(3-oxa-8-azabicyclo[3.2.1]octan-8-yl)benzoic acid] stands 8.02; under `Cc1nc2c(-c3cc(Cl)c(C(=O)N4COc5c(cccc5-c5cc(N6C7CCC6COC7)c(C(=O)O)cc5F)C4)c(Cl)c3)cncc2n1C` [Compound 3-8, 4-[3-[2,6-Dichloro-4-(2,3-dimethylimidazo[4,5-c]pyridin-7-yl)benzoyl]-2,4-dihydro-1,3-benzoxazin-8-yl]-5-fluoro-2-(3-oxa-8-azabicyclo[3.2.1]octan-8-yl)benzoic acid], 7.77.
Under `Cn1nnc2cc(-c3cc(Cl)c(C(=O)N4COc5c(cccc5-c5cc(N6C7CCC6COC7)c(C(=O)O)cc5F)C4)c(Cl)c3)cnc21` [Compound 3-9, 4-[3-[2,6-Dichloro-4-(3-methyltriazolo[4,5-b]pyridin-6-yl)benzoyl]-2,4-dihydro-1,3-benzoxazin-8-yl]-5-fluoro-2-(3-oxa-8-azabicyclo[3.2.1]octan-8-yl)benzoic acid] stands 8.00; under `Cn1nc2cncc(-c3cc(Cl)c(C(=O)N4COc5c(cccc5-c5cc(N6C7CCC6COC7)c(C(=O)O)cc5F)C4)c(Cl)c3)c2n1` [Compound 3-10, 4-[3-[2,6-Dichloro-4-(2-methyltriazolo[4,5-c]pyridin-7-yl)benzoyl]-2,4-dihydro-1,3-benzoxazin-8-yl]-5-fluoro-2-(3-oxa-8-azabicyclo[3.2.1]octan-8-yl)benzoic acid], 8.33.
`Cn1nnc2c(-c3cc(Cl)c(C(=O)N4COc5c(cccc5-c5cc(N6C7CCC6COC7)c(C(=O)O)cc5F)C4)c(Cl)c3)cncc21` [Compound 3-11, 4-[3-[2,6-Dichloro-4-(3-methyltriazolo[4,5-c]pyridin-7-yl)benzoyl]-2,4-dihydro-1,3-benzoxazin-8-yl]-5-fluoro-2-(3-oxa-8-azabicyclo[3.2.1]octan-8-yl)benzoic acid] showed a pEC50 of 8.24.
As for `Cn1cc2cc(-c3cc(Cl)c(C(=O)N4COc5c(cccc5-c5cc(N6C7CCC6COC7)c(C(=O)O)cc5F)C4)c(Cl)c3)ccc2n1` [Compound 3-12, 4-[3-[2,6-Dichloro-4-(2-methylindazol-5-yl)benzoyl]-2,4-dihydro-1,3-benzoxazin-8-yl]-5-fluoro-2-(3-oxa-8-azabicyclo[3.2.1]octan-8-yl)benzoic acid], the pEC50 is 8.06.
`Cn1cc2nc(-c3cc(Cl)c(C(=O)N4COc5c(cccc5-c5cc(N6C7CCC6COC7)c(C(=O)O)cc5F)C4)c(Cl)c3)ccc2n1` [Compound 3-13, 4-[3-[2,6-Dichloro-4-(2-methylpyrazolo[4,3-b]pyridin-5-yl)benzoyl]-2,4-dihydro-1,3-benzoxazin-8-yl]-5-fluoro-2-(3-oxa-8-azabicyclo[3.2.1]octan-8-yl)benzoic acid] had a pEC50 of 8.01.
Turning to `Cn1ncc2cc(-c3cc(Cl)c(C(=O)N4COc5c(cccc5-c5cc(N6C7CCC6COC7)c(C(=O)O)cc5F)C4)c(Cl)c3)cnc21` [Compound 3-14, 4-[3-[2,6-Dichloro-4-(1-methylpyrazolo[3,4-b]pyridin-5-yl)benzoyl]-2,4-dihydro-1,3-benzoxazin-8-yl]-5-fluoro-2-(3-oxa-8-azabicyclo[3.2.1]octan-8-yl)benzoic acid], the pEC50 is 8.06.
In the case of `Cn1ncc2cc(-c3cc(Cl)c(C(=O)N4COc5c(cccc5-c5cc(N6C7CCC6COC7)c(C(=O)O)cc5F)C4)c(Cl)c3)ccc21` [Compound 3-15, 4-[3-[2,6-Dichloro-4-(1-methylindazol-5-yl)benzoyl]-2,4-dihydro-1,3-benzoxazin-8-yl]-5-fluoro-2-(3-oxa-8-azabicyclo[3.2.1]octan-8-yl)benzoic acid] it was 8.08; in that of `Cn1ncc2c(-c3cc(Cl)c(C(=O)N4COc5c(cccc5-c5cc(N6C7CCC6COC7)c(C(=O)O)cc5F)C4)c(Cl)c3)ccnc21` [Compound 3-16, 4-[3-[2,6-Dichloro-4-(1-methylpyrazolo[3,4-b]pyridin-4-yl)benzoyl]-2,4-dihydro-1,3-benzoxazin-8-yl]-5-fluoro-2-(3-oxa-8-azabicyclo[3.2.1]octan-8-yl)benzoic acid], 7.96; in that of `Cn1nc2nccc(-c3cc(Cl)c(C(=O)N4COc5c(cccc5-c5cc(N6C7CCC6COC7)c(C(=O)O)cc5F)C4)c(Cl)c3)c2n1` [Compound 3-17, 4-[3-[2,6-Dichloro-4-(2-methyltriazolo[4,5-b]pyridin-7-yl)benzoyl]-2,4-dihydro-1,3-benzoxazin-8-yl]-5-fluoro-2-(3-oxa-8-azabicyclo[3.2.1]octan-8-yl)benzoic acid], 7.92.
Consider `O=C(O)c1cc(F)c(-c2cccc3c2OCN(C(=O)c2c(Cl)cc(-c4ccn5cncc5c4)cc2Cl)C3)cc1N1C2CCC1COC2` [Compound 3-18, 4-[3-(2,6-Dichloro-4-imidazo[1,5-a]pyridin-7-ylbenzoyl)-2,4-dihydro-1,3-benzoxazin-8-yl]-5-fluoro-2-(3-oxa-8-azabicyclo[3.2.1]octan-8-yl)benzoic acid], for which the pEC50 is 7.70.
`Cn1nnc2c(-c3cc(Cl)c(C(=O)N4COc5c(cccc5-c5cc(N6C7CCC6COC7)c(C(=O)O)cc5F)C4)c(Cl)c3)ccnc21` [Compound 3-19, 4-[3-[2,6-Dichloro-4-(3-methyltriazolo[4,5-b]pyridin-7-yl)benzoyl]-2,4-dihydro-1,3-benzoxazin-8-yl]-5-fluoro-2-(3-oxa-8-azabicyclo[3.2.1]octan-8-yl)benzoic acid] had a pEC50 of 8.10.
The compound `Cn1nc2cc(-c3cc(Cl)c(C(=O)N4COc5c(cccc5-c5cc(N6C7CCC6COC7)c(C(=O)O)cc5F)C4)c(Cl)c3)cnc2n1` [Compound 3-20, 4-[3-[2,6-Dichloro-4-(2-methyltriazolo[4,5-b]pyridin-6-yl)benzoyl]-2,4-dihydro-1,3-benzoxazin-8-yl]-5-fluoro-2-(3-oxa-8-azabicyclo[3.2.1]octan-8-yl)benzoic acid] had a pEC50 of 8.05.
In the case of `Cn1cc(-c2cc(Cl)c(C(=O)N3COc4c(cccc4-c4cc(N5C6CCC5COC6)c(C(=O)O)cc4F)C3)c(Cl)c2)c2nccnc21` [Compound 3-21, 4-[3-[2,6-Dichloro-4-(5-methylpyrrolo[2,3-b]pyrazin-7-yl)benzoyl]-2,4-dihydro-1,3-benzoxazin-8-yl]-5-fluoro-2-(3-oxa-8-azabicyclo[3.2.1]octan-8-yl)benzoic acid], the pEC50 was 8.19.
